US20230113037A1 (Bayer Aktiengesellschaft, priority 2019, published 2023)

What follows are molecules tested against T1, AHR (Mus musculus, UniProt P30561) (assay: In vitro assay 3: antagonism in mouse cell line (AHR transactivation, firefly luciferase reporter, kynurenic acid prestimulated)). Details: Hepa 1c1c7 cells, 200 μM kynurenic acid, 20 hours, firefly luciferase reporter, read-out: AHR Antagonism Mouse IC50.
T1 sequence (P30561 1-848 P471L/N533S/M589L): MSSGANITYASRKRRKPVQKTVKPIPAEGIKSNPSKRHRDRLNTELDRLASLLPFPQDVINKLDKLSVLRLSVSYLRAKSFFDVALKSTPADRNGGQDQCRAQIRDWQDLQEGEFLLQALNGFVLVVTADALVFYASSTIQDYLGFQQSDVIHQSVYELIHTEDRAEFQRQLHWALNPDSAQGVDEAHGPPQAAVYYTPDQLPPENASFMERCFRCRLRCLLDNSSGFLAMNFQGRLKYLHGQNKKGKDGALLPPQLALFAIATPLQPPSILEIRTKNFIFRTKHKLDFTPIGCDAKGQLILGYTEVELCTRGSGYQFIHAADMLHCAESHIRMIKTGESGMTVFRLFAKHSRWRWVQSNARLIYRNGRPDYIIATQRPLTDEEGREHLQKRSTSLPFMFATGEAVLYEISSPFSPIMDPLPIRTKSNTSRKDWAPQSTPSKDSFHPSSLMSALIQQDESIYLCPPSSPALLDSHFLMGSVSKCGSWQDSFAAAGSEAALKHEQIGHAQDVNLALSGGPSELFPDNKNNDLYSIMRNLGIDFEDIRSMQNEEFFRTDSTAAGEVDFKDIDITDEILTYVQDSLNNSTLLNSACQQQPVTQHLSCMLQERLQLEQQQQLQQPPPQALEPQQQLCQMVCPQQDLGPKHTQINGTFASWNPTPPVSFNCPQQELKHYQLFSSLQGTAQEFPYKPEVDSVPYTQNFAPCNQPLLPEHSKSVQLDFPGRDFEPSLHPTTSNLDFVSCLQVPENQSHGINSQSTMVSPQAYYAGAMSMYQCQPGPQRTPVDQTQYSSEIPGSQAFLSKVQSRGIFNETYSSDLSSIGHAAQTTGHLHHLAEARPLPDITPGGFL
Assay type: cell-based
Procedure: Examples were tested in selected biological assays one or more times. When tested more than once, data are reported as either average values or as median values, wherein • the average value, also referred to as the arithmetic mean value, represents the sum of the values obtained divided by the number of times tested, and • the median value represents the middle number of the group of values when ranked in ascending or descending order. If the number of values in the data set is odd, the median is the middle value. If the number of values in the data set is even, the median is the arithmetic mean of the two middle values.
In addition the cells were stably transfected with an AHR inducible firefly luciferase reporter gene construct that carried AHR-binding sites (DRE) in its promoter. Kynurenic acid is an endogenous AHR activating ligand and was used to prestimulate test cells prior to testing the antagonistic properties of compounds.
As positive inhibition control cells without addition of kynurenic acid were incubated. Normalization was done by positive and negative controls.
Firefly luciferase activity was determined by the SteadyGlo Luciferase Assay System (Promega, #E2550).

IC50	SMILES
771 nM	C[C@@H](Nc1nc2c(Br)cccc2c2nc(-c3cnn(C)c3)nn12)C(=O)NCCCN(C)C [Example 810, N^2-[7-bromo-2-(1-methyl-1H-pyrazol-4-yl)[1,2,4]triazolo[1,5-c]quinazolin-5-yl]-N-[3-(dimethylamino)propyl]-D-alaninamide]
0.409 nM	O=C1NCCCC[C@H]1Nc1nc2c(Br)cccc2c2nc(-c3cnn(C(F)F)c3)nn12 [Example 827, (3R)-3-({7-bromo-2-[1-(difluoromethyl)-1H-pyrazol-4-yl][1,2,4]triazolo[1,5-c]quinazolin-5-yl}amino)azepan-2-one]
46.8 nM	COc1ccc(-c2nc3c4cccc(N(C)C)c4nc(N[C@@H]4CCCCNC4=O)n3n2)cc1 [Example 829, (3R)-3-{[7-(dimethylamino)-2-(4-methoxyphenyl)[1,2,4]triazolo[1,5-c]quinazolin-5-yl]amino}azepan-2-one]
> 20000 nM	O=C1NCCCC[C@H]1Nc1nc2c(Br)cccc2c2nc(-c3ccc(Cl)cc3)nn12 [Example 830, (3R)-3-{[7-bromo-2-(4-chlorophenyl)[1,2,4]triazolo[1,5-c]quinazolin-5-yl]amino}azepan-2-one]
4.6 nM	O=C1NCCNC[C@@H]1Nc1nc2c(Cl)cccc2c2nc(-c3ccc(F)cc3)nn12 [Example 964, (6S)-6-{[7-chloro-2-(4-fluorophenyl)[1,2,4]triazolo[1,5-c]quinazolin-5-yl]amino}-1,4-diazepan-5-one]
12 nM	O=C1NCCNC[C@@H]1Nc1nc2ccccc2c2nc(-c3ccc(F)cc3)nn12 [Example 965, (6S)-6-{[2-(4-fluorophenyl)[1,2,4]triazolo[1,5-c]quinazolin-5-yl]amino}-1,4-diazepan-5-one]
52.9 nM	COc1ccc(-c2nc3c4cccc(C)c4nc(N[C@H]4CNCCNC4=O)n3n2)cc1 [Example 970, (6S)-6-{[2-(4-methoxyphenyl)-7-methyl[1,2,4]triazolo[1,5-c]quinazolin-5-yl]amino}-1,4-diazepan-5-one]
8.28 nM	O=C1NCCNC[C@@H]1Nc1nc2c(Br)cccc2c2nc(-c3ccc(F)cc3)nn12 [Example 973, (6S)-6-{[7-bromo-2-(4-fluorophenyl)[1,2,4]triazolo[1,5-c]quinazolin-5-yl]amino}-1,4-diazepan-5-one]

SMILES	IC50
C[C@@H](Nc1nc2ccccc2c2nc(-c3ccccc3OC(F)(F)F)nn12)C(=O)NCCN(C)C [Example 792, N-[2-(dimethylamino)ethyl]-N^2-{2-[2-(trifluoromethoxy)phenyl][1,2,4]triazolo[1,5-c]quinazolin-5-yl}-D-alaninamide]	28.7 nM

Same assay, conditions: mouse Hepa 1c1c7 cells, 200 μM kynurenic acid, 20 hours, read-out: AHR Antagonism Mouse IC50

IC50	SMILES
17.5 nM	O=C1NCCCC[C@@H]1Nc1nc2ccccc2c2nc(-c3ccccc3Br)nn12 [Example 453, (3S)-3-{[2-(2-bromophenyl)[1,2,4]triazolo[1,5-c]quinazolin-5-yl]amino}azepan-2-one]
165 nM	O=C1NCCC[C@H]1Nc1nc2ccccc2c2nc(-c3ccccc3Br)nn12 [Example 454, (3R)-3-{[2-(2-bromophenyl)[1,2,4]triazolo[1,5-c]quinazolin-5-yl]amino}piperidin-2-one]
81.2 nM	CC[C@H](Nc1nc2ccccc2c2nc(-c3ccccc3OC(F)(F)F)nn12)C(N)=O [Example 462, (2S)-2-({2-[2-(trifluoromethoxy)phenyl][1,2,4]triazolo[1,5-c]quinazolin-5-yl}amino)butanamide]
32.8 nM	CCCC[C@H](Nc1nc2ccccc2c2nc(-c3ccccc3OC(F)(F)F)nn12)C(N)=O [Example 467, N^2-{2-[2-(trifluoromethoxy)phenyl][1,2,4]triazolo[1,5-c]quinazolin-5-yl}norleucinamide]
57.1 nM	O=C1NCCCC[C@H]1Nc1nc2ccccc2c2nc(-c3cc(Cl)ccc3OC(F)(F)F)nn12 [Example 497, (3R)-3-({2-[5-chloro-2-(trifluoromethoxy)phenyl][1,2,4]triazolo[1,5-c]quinazolin-5-yl}amino)azepan-2-one]
196 nM	CCCNC(=O)[C@@H](C)Nc1nc2ccccc2c2nc(-c3cc(Cl)ccc3OC(F)(F)F)nn12 [Example 502, N^2-{2-[5-chloro-2-(trifluoromethoxy)phenyl][1,2,4]triazolo[1,5-c]quinazolin-5-yl}-N-propyl-D-alaninamide]
5.53 nM	O=C1NCCC[C@H]1Nc1nc2ccccc2c2nc(-c3ccc(Cl)cc3OC(F)F)nn12 [Example 527, (3R)-3-({2-[4-chloro-2-(difluoromethoxy)phenyl][1,2,4]triazolo[1,5-c]quinazolin-5-yl}amino)piperidin-2-one]
10.6 nM	CC[C@H](Nc1nc2ccccc2c2nc(-c3ccc(Cl)cc3OC(F)F)nn12)C(N)=O [Example 532, (2S)-2-({2-[4-chloro-2-(difluoromethoxy)phenyl][1,2,4]triazolo[1,5-c]quinazolin-5-yl}amino)butanamide]
> 20000 nM	COc1ccc(-c2nc3c4cc(C(F)(F)F)ccc4nc(N[C@@H]4CCCCNC4=O)n3n2)cc1 [Example 545, (3R)-3-{[2-(4-methoxyphenyl)-9-(trifluoromethyl)[1,2,4]triazolo[1 ,5-c]quinazolin-5-yl]amino}azepan-2-one]
1.18 nM	COc1ccc(-c2nc3c4cccc(Cl)c4nc(N[C@@H]4CCCCNC4=O)n3n2)cc1 [Example 553, (3R)-3-{[7-chloro-2-(4-methoxyphenyl)[1,2,4]triazolo[1,5-c]quinazolin-5-yl]amino}azepan-2-one]
44.1 nM	COc1ccc(-c2nc3c4cccc(C(F)(F)F)c4nc(N[C@H]4CCCCNC4=O)n3n2)cc1 [Example 582, (3S)-3-{[2-(4-methoxyphenyl)-7-(trifluoromethyl)[1,2,4]triazolo[1,5-c]quinazolin-5-yl]amino}azepan-2-one]
2420 nM	O=C1NCCCC[C@H]1Nc1nc2c(Br)cc(Br)cc2c2nc(-c3ccc(F)cc3)nn12 [Example 591, (3R)-3-{[7,9-dibromo-2-(4-fluorophenyl)[1,2,4]triazolo[1,5-c]quinazolin-5-yl]amino}azepan-2-one]
82.1 nM	COc1ccc(-c2nc3c4cc(Br)cc(Br)c4nc(N[C@@H]4CCCCNC4=O)n3n2)cc1 [Example 593, (3R)-3-{[7,9-dibromo-2-(4-methoxyphenyl)[1,2,4]triazolo[1,5-c]quinazolin-5-yl]amino}azepan-2-one]
0.927 nM	O=C1NCCCC[C@H]1Nc1nc2ccccc2c2nc(-c3ccc(F)nc3)nn12 [Example 639, (3R)-3-{[2-(6-fluoropyridin-3-yl)[1,2,4]triazolo[1,5-c]quinazolin-5-yl]amino}azepan-2-one]
30.1 nM	COc1ccc(-c2nc3c4ccccc4nc(N[C@@H]4CN(C)CCNC4=O)n3n2)cc1 [Example 656, (6R)-6-{[2-(4-methoxyphenyl)[1,2,4]triazolo[1,5-c]quinazolin-5-yl]amino}-1-methyl-1,4-diazepan-5-one]
450 nM	COc1ccc(-c2nc3c4ccccc4nc(N[C@H](C)C(=O)O)n3n2)cc1 [Example 658, N-[2-(4-methoxyphenyl)[1,2,4]triazolo[1,5-c]quinazolin-5-yl]-D-alanine]
0.744 nM	N#Cc1ccc(-c2nc3c4cccc(C(F)(F)F)c4nc(N[C@@H]4CCCCNC4=O)n3n2)cc1 [Example 671, 4-[5-{[(3R)-2-oxoazepan-3-yl]amino}-7-(trifluoromethyl)[1,2,4]triazolo[1,5-c]quinazolin-2-yl]benzonitrile]
4.35 nM	O=C1NCCCC[C@H]1Nc1nc2c(C(F)(F)F)cccc2c2nc(-c3ccc(Cl)cc3OC(F)(F)F)nn12 [Example 672, (3R)-3-({2-[4-chloro-2-(trifluoromethoxy)phenyl]-7-(trifluoromethyl)[1,2,4]triazolo[1,5-c]quinazolin-5-yl}amino)azepan-2-one]

Same assay, conditions: read-out: AHR Antagonism Mouse IC50, Hepa 1c1c7 cells, 200 μM kynurenic acid, 20 hours, firefly luciferase reporter

SMILES	IC50
C[C@@H](Nc1nc2ccccc2c2nc(-c3ccccc3OC(F)(F)F)nn12)C(=O)NCCN(C)C [Example 791, formic acid-N-[2-(dimethylamino)ethyl]-N^2-{2-[2-(trifluoromethoxy)phenyl][1,2,4]triazolo[1,5-c]quinazolin-5-yl}-D-alaninamide (1/1)]	264 nM
